A short description of data set [1]: In vitro stability of the radioligand in saline, PBS and TRIS-HCl buffer. Conditions: 37 °C. The class given is physicochemical. As to the method: (§1) The in vitro stability of [^18F]RM273 was investigated in saline, phosphate-buffered saline (PBS), and TRIS-HCl buffer (50 mM, pH 7.4) at 37 °C for 2 h, and the radioligand remained intact (90%, 94%, and 100%, respectively; saline for 1 h: 95%). The logD7.4 of [^18F]RM273 was experimentally determined by the shake-flask method as 1.78 ± 0.22 (n = 3), which is well within the range of 1–3.5 recommended for brain targeting compounds [43].
In vitro stability of [^18F]RM273 was determined in saline, phosphate-buffered saline (PBS), and TRIS (50 mM, pH 7.4) by incubation of approx. 5 MBq in 500 µL of each medium at 37 °C. Samples were taken after 30, 60, and 120 min and analyzed by analytical radio-HPLC with a gradient system as applied in Section 5.2.2.

Data set [2] in a line: Lipophilicity (logD7.4), shake-flask method. The class given is physicochemical. To be noted: n-octanol/PBS pH 7.4, shake-flask, n = 3. As to the method: as §1
LogD7.4 of [^18F]RM273 was experimentally determined in n-octanol/PBS; 0.01 M, pH 7.4) at room temperature by the shake-flask method. The measurement was performed twice in triplicate.

Data set [3] addresses T1, σ2 receptors expressed in F98 cells (Rattus norvegicus, UniProt Q5U3Y7).
T1 construct: σ2 receptors expressed in F98 cells; endogenous in cells; host or cells: F98 rat glioma cells
T1 sequence (Q5U3Y7 1-176): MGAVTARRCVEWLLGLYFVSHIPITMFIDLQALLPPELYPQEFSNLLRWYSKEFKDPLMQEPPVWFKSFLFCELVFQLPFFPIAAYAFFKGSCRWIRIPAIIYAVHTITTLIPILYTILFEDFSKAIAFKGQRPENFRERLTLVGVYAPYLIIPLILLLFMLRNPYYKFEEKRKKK
The data set can be described thus: Homologous competition with membrane homogenates of F98 cells. The class given is binding. The text has this: Initially, we investigated the binding of [^18F]RM273 on rat brain slices by autoradiography to compare the distribution pattern with that of established σ2 receptor ligands and to examine the target specificity. The highest binding was found in the cortical areas and hippocampal structures. […] Accordingly, we proceeded to investigate, in a rat glioblastoma model, the potential suitability of [^18F]RM273 for molecular characterization of cancer. At first, homologous competition studies using membrane homogenates of the rat glioma cell line F98 were performed to determine the σ2 receptor binding parameters of [^18F]RM273 cells (Figure 3).
Binding affinity experiments to assess the Ki values of test compounds towards rat σ2 receptors, human σ1 receptors, and rat VAChT were performed according to protocols previously published by our group. The same protocol was used to determine the KD and Bmax values of RM273 towards σ2 receptors expressed in F98 cells by homologous competition analyzing the displacement of [^18F]RM273 by RM273.
Figure 3 Determination of KD and Bmax values of [^18F]RM273. Homologous competition studies were performed by incubation of [^18F]RM273 at 5–7 different molar activities either with membrane homogenates of F98 cells (open squares) or cryosections of rat brain (n = 2) obtained about three weeks after stereotactic implantation of F98 cells (tumor region = filled circles; contralateral region = open circles). […] For the F98 cell homogenate, the maximum number of binding sites Bmax was calculated by division of the specific binding by the fractional occupancy fp (Bmax = 36,000 fmol/mg protein).

Data set [4] is described as follows: Quantification of radiometabolites in mouse tissues at 30 min p.i. The class given is in vivo, CD-1 mice. Here is the method:
From quantitative analysis of the radio-chromatograms, which indicated the presence of solely [^18F]RM273 (>99%; n = 3; Supplemental Information Table S1 and Figure S2), we concluded that upon the presence of an intact BBB, the PET image derived from [^18F]RM273 in the brain was not affected by confounding radiometabolites.
About 30 MBq [^18F]RM273 dissolved in about 150 µL isotonic saline was administered intravenously as a bolus in the tail vein of in awake female CD-1 mice weighing about 33 g (n = 3). At 30 min p.i., the animals were anesthetized and blood was withdrawn by retrobulbar bleeding using glass capillaries. Immediately afterwards, the animals were euthanized by cervical dislocation, and released urine sampled. Blood plasma was obtained from the whole blood sample by centrifugation (2 min, 8000 rpm, room temperature). In addition, the brain, the liver, and the pancreas were isolated and homogenized in 1 mL demineralized water on ice (1000 rpm, 10 strokes; glass vessel, PTFE plunger; Potter S, B. Braun Biotech International, Goettingen, Germany). Bone marrow (n = 2) was isolated by flushing the femur with about 200 µL isotonic saline.
The samples were further processed for subsequent radio-chromatographic analyses. Two consecutive extractions were performed as duplicate for plasma and brain determinations. Plasma and brain samples were added to an ice-cold MeOH/H2O mixture (9:1, v/v). The samples were vortexed for 3 min, incubated on ice for 5 min, and centrifuged at 12,000 rpm for 5 min. Supernatants were collected, the precipitates were re-dissolved in 100 µL of extraction solvent, and the extraction procedure was repeated. The activities of supernatants and precipitates were measured in a γ-counter (1480 WIZARD, Fa. Perkin Elmer), and the extraction efficiencies were calculated as ratio of the radioactivity in the supernatant to the radioactivity in the original sample (supernatant + precipitate). The supernatants from both extractions were combined, concentrated at 70 °C under argon stream up to a remaining volume of 100 µL, and subsequently analyzed by analytical radio-HPLC with a gradient system as applied in Section 5.2.2.
3. Quantification of radiometabolites in mouse
Table 1. Radiometabolite analysis of [18F]RM273 in different tissues 30 min p.i.
Experiment 1 Experiment 2
Extraction Intact Extraction Intact Extraction Intact efficiency tracer efficiency tracer (%) efficiency tracer
Figure 2. Representative radio-HPLC chromatograms of the metabolism studies of [18F]RM273 in different tissues obtained at 30 min p.i.. (A) Brain, (B) Plasma, (C) Pancreas, (D)
Liver and (E) Bone marrow. Conditions:
Reprosil-Pur C18-AQ (250 x 4.6 mm; 5 μm); gradient (eluent A 10% MeCN/20 mM
NH4OAcaq.; eluent B 90 % MeCN/20 mM
(1 picture or pasted object on this page, not shown here)

The logD is lipophilicity at a set pH, counting ionised and neutral species. A low value points to a more hydrophilic compound. Broadly, the Kd is a measure of binding affinity in units of concentration. `COc1cc2c(cc1OC)CN(CCCCn1ccc3ccc([18F])nc31)CC2` [[^18F]RM273]: the radioligand remained intact in data set [1] (TRIS-HCl buffer (50 mM, pH 7.4), 2 h) is recorded as 100%; in data set [1] (phosphate-buffered saline (PBS), 2 h) it was 94%; in data set [1] (saline, 1 h) it was 95%; in data set [1] (saline, 2 h) it was 90%. Also, the logD in data set [2] worked out at 1.78 ± 0.22. Also, in data set [3] (F98 cell homogenate, converted from fmol/mg protein), the Bmax equivalent entry is “about 3600 fmol/mg tissue”. Also, in data set [3] (F98 cell membrane homogenate), the Bmax is recorded as 36,000 fmol/mg protein. Moreover, in data set [3] (F98 cell membrane homogenate, homologous competition), the Kd was found to be 12 nM. For the same molecule, the Intact tracer turned out to be 97% in data set [4] (Bone Marrow, Mouse 2); 97% in data set [4] (Bone Marrow, Mouse 3); 100% in data set [4] (Brain, Mouse 1); 100% in data set [4] (Brain, Mouse 2); 100% in data set [4] (Brain, Mouse 3); 34% in data set [4] (Liver, Mouse 1). For the same molecule, the Intact tracer in data set [4] (Liver, Mouse 2) is 36%; in data set [4] (Liver, Mouse 3), 28%; in data set [4] (Pancreas, Mouse 1), 100%; in data set [4] (Pancreas, Mouse 2) it was 96%; in data set [4] (Pancreas, Mouse 3), 96%; in data set [4] (Plasma, Mouse 1), 23%. In addition, the Intact tracer is 37% in data set [4] (Plasma, Mouse 2) and 28% in data set [4] (Plasma, Mouse 3). Further, in data set [4] (mice, n = 3), the “intact radioligand in brain” value is listed as more than 99%.

The values above are taken from PMC8196714, “Design, Radiosynthesis and Preliminary Biological Evaluation in Mice of a Brain-Penetrant ^18F-Labelled σ2 Receptor Ligand” (International Journal of Molecular Sciences, 2021).
